Source: US4980372A, “Benzoylaminophenoxybutanoic acid derivatives” (Ono Pharmaceutical Co., Ltd., priority 1987, dated 1990)

biological target: 5α-reductase; assay: 5α-reductase inhibitory activity in vitro; type: biochemical, rat; conditions: male rats' prostate enzyme, [4-C14]-testosterone, NADPH, 60 mins at 37° C., pH 7.4
Experimental: 5α-reductase inhibitory activity in vitro
Inhibitory activity on 5α-reductase in vitro was measured by the following test system.
The test was carried out by making reference to the method of J. Shimazaki et al [See Endocrinical. Japon., 18, 179 (1971)].
Male rats' prostate (4 g) was homogenized with its triple volume of 0.1M HEPES buffer (pH 7.4) including 0.25M cane sugar, and was centrifuged at 3000 r.p.m. for 10 mins.
The precipitate was suspended into the buffer solution described above (10 ml), and the suspension was centrifuged at 3000 r.p.m. for 5 mins. The resulting precipitated was suspended in the buffer solution (3 ml) described above and was used as a sauce of enzyme.
A reaction mixture (total volume 0.1 ml) of [4-C^14 ]-testosterone (1.5 n mol, 1.5×10^5 cpm) NADPH (0.5 μmol) enzyme solution (0.03 ml) described above and several kinds of concentration of the compounds in the present invention was incubated for 60 mins at 37° C. Enzyme reaction was quenched by addition of a mixture (1.0 ml) of diethyl ether, petroleum ether and acetic acid (80:20:1), and the mixture was centrifuged at 3000 r.p.m. for 5 mins. The supernatant (200 μl) was spotted on silica gel thin layer plate. The spot on the plate was developed with a mixture of chloroform, methanol and acetic acid (99:0.8:0.2). Radioactivity of dihydrotestosterone generated on the plate was measured by TLC scanner of radio-autography and inhibitory ratio was calculated.

| Structure (SMILES) | IC50 [nM] |
| --- | --- |
| Cc1c(OC(c2ccccc2)c2ccccc2)ccc(C(=O)Nc2ccccc2OCCCC(=O)O)c1C [2(q)] | 200 |
| CCCc1ccc(COc2ccc(C(=O)Nc3ccccc3[S+]([O-])CCCC(=O)O)c(C)c2C)cc1 (centres unmarked) [Example 3, 4-[2-[4-(4-propylbenzyloxy)-2,3-dimethylbenzoylamino]phenylsulfinyl]butanoic acid] | 700 |
| Cc1c(OC(C)c2ccc(CC(C)C)cc2)ccc(C(=O)Nc2ccccc2OCCCC(=O)O)c1C (centres unmarked) [2(o), 4-[2-[4-[1-(4-isobutylphenyl)ethoxy]-2,3-dimethylbenzoylamino]phenoxy]butanoic acid] | 5 |
| Cc1c(OC(C)c2ccc(CC(C)C)cc2)ccc(C(=O)Nc2ccccc2SCCCC(=O)O)c1C (centres unmarked) [2(dd), 4-[2-[4-[1-(4-isobutylphenyl)ethoxy]-2,3-dimethylbenzoylamino]phenylthio]butanoic acid] | 120 |
| Cc1c(OCCCCc2ccccc2)ccc(C(=O)Nc2ccccc2OCCCC(=O)O)c1C [2(m), 4-[2-[4-(4-phenylbutoxy)-2,3-dimethylbenzoylamino]phenoxy]butanoic acid] | 750 |
| CC(C)Cc1ccc(COc2ccc(C(=O)Nc3ccccc3OCCCC(=O)O)c3c2CCC3)cc1 [2(y), 4-[2-(7-(4-isobutylbenzyloxy)indane-4-carbonylamino]phenoxy]butanoic acid] | 410 |
| CC(C)Cc1ccc(COc2ccc(C(=O)Nc3ccccc3OCCCC(=O)O)c3c2CCCC3)cc1 [2(z), 4-[2-[4-(4-isobutylbenzyloxy)-5,6,7,8-tetrahydronaphthalene-1-carbonylamino]phenoxy]butanoic acid] | 50 |
| CCCc1ccc(COc2ccc(C(=O)Nc3ccccc3SCCCC(=O)O)c(C)c2C)cc1 [2(cc), 4-[2-[4-(4-propylbenzyloxy)-2,3-dimethylbenzoylamino)phenylthio]butanoic acid] | 380 |
| CCc1ccc(COc2ccc(C(=O)Nc3ccccc3OCCCC(=O)O)c(C)c2C)cc1 [2(f), 4-[2-[4-(4-ethybenzyloxy)-2,3-dimethylbenzoylamino]phenoxy]butanoic acid] | 270 |
| Cc1c(OCc2ccc(CC3CCC3)cc2)ccc(C(=O)Nc2ccccc2OCCCC(=O)O)c1C [2(j), 4-[2-[4-(4-cyclobutylmethylbenzyloxy)-2,3-dimethylbenzoylamino]phenoxy]butanoic] | 2500 |
| Cc1c(OCc2ccc(C(C)C)cc2)ccc(C(=O)Nc2ccccc2OCCCC(=O)O)c1C [2(h), 4-[2-[4-(4-isopropylbenzyloxy)-2,3-dimethylbenzoylamino]phenoxy]butanoic acid] | 260 |
| Cc1cccc(C)c1COc1ccc(C(=O)Nc2ccccc2OCCCC(=O)O)c(C)c1C [2(e), 4-[2-[4-(2,6-dimethylbenzyloxy)-2,3-dimethylbenzoylamino]phenoxy]butanoic acid] | 1400 |
| CC(C)Cc1ccc(COc2ccc(C(=O)Nc3ccccc3SCCCC(=O)O)c3c2CCCC3)cc1 [2(bb), 4-[2-[4-(4-isobutylbenzyloxy)-5,6,7,8-tetrahydronaphthalene-1-carbonylamino]phenylthio]butanoic acid] | 420 |
| Cc1c(OCc2ccccc2)ccc(C(=O)Nc2ccccc2OCCCC(=O)O)c1C [2(a), 4-[2-(4-benzyloxy-2,3-dimethylbenzoylamino)phenoxy]butanoic acid] | 2100 |
| CC(C)Cc1ccc(COc2ccc(C(=O)Nc3ccccc3OCCCC(=O)O)c(Cl)c2Cl)cc1 [2(x), 4-[2-[4-(4-isobutylbenzyloxy)-2,3-dichlorobenzoylamino]phenoxy]butanoic acid] | 2800 |
| Cc1c(OCCCCCc2ccccc2)ccc(C(=O)Nc2ccccc2OCCCC(=O)O)c1C [2(n), 4-[2-[4-(5-phenylpentyloxy)-2,3-dimethylbenzoylamino]phenoxy]butanoic acid] | 950 |
| CC(C)Cc1ccc(COc2ccc(C(=O)Nc3ccccc3OCCCC(=O)O)c3ccccc23)cc1 [2(aa), 4-[2-[4-[4-isobutylbenzyloxy)naphthalene-1-carbonylamino]phenoxy]butanoic acid] | 520 |
| CCCc1ccc(COc2ccc(C(=O)Nc3ccccc3OCCCC(=O)O)c(C)c2C)cc1 [2(g), 4-[2-[4-(4-propylbenzyloxy)-2,3-dimethylbenzoylamino]phenoxy]butanoic acid] | 340 |
| Cc1ccc(COc2ccc(C(=O)Nc3ccccc3OCCCC(=O)O)c(C)c2C)cc1 [2(d), 4-[2-[4-(4-methylbenzyloxy)-2,3-dimethylbenzoylamino]phenoxy]butanoic acid] | 980 |
| CCCc1ccc(C(Oc2ccc(C(=O)Nc3ccccc3OCCCC(=O)O)c(C)c2C)c2ccc(CCC)cc2)cc1 [2(p), 4-[2-[4-[bis(4-propylphenyl)methoxy]-2,3-dimethylbenzoylamino]phenoxy]butanoic acid] | 11 |
| Cc1c(OCc2ccc(CC(C)C)cc2)ccc(C(=O)Nc2ccccc2OCCCC(=O)O)c1C [Example 2, 4-[2-[4-(4 isobutylbenzyloxy)-2 3-dimethylbenzoylamino]phenoxy]butanoic acid] | 120 |
| Cc1ccccc1COc1ccc(C(=O)Nc2ccccc2OCCCC(=O)O)c(C)c1C [2(b), 4-[2-[4-(2-methylbenzyloxy)-2,3-dimethylbenzoylamino]phenoxy]butanoic acid] | 380 |
| Cc1c(OCCCc2ccccc2)ccc(C(=O)Nc2ccccc2OCCCC(=O)O)c1C [2(l)] | 1000 |
| Cc1c(OCCc2ccccc2)ccc(C(=O)Nc2ccccc2OCCCC(=O)O)c1C [2(k), 4-[2-[4-(2-phenylethoxy)-2,3-dimethylbenzoylamino]phenoxy]butanoic acid] | 2600 |
| Cc1cccc(COc2ccc(C(=O)Nc3ccccc3OCCCC(=O)O)c(C)c2C)c1 [2(c), 4-[2-[4-(3-methylbenzyloxy)-2,3-dimethylbenzoylamino]phenoxy]butanoic acid] | 1300 |
| Cc1c(OCc2ccc(Cl)cc2)ccc(C(=O)Nc2ccccc2OCCCC(=O)O)c1C [2(i), 4-[2-[4-(4-chlorobenzyloxy)-2,3-dimethylbenzoylamino]phenoxy]butanoic acid] | 2000 |
